Target: T1, Human CaV2.2 channels (Homo sapiens, UniProt Q00975)
T1 construct: expressed in transfected cells; Kir2.3 also stably co-expressed
Assay: Fluorescence assay for CaV2.2 channels using potassium depolarization to induce channel opening (FLIPR, Fluo 4)
Assay type: cell-based
Settings: 30 mM KCl assay buffer (inactivated channel state), HEK293 cells; for Activity Category: %-Inhib (CaV2.2) @3 μM @30 mM KCl: 3 μM test compound; for inhibition at 3 µM: HEK293, 3 μM test compound, read-out: Activity Category: %-Inhib (CaV2.2) @3 μM @30 mM KCl
Outline: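 HEK293 cells stably co-expressing human CaV2.2 with α2δ and β subunits plus Kir2.3, Fluo-4 loaded; compounds preincubated 15 min at 25 °C in 1 mM or 30 mM KCl buffer (inactivated state), pH 7.4. Depolarized by KCl addition; baseline-normalized peak fluorescence (ex 480/em 535 nm) gave inhibition.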

T1 sequence (Q00975 whole entry): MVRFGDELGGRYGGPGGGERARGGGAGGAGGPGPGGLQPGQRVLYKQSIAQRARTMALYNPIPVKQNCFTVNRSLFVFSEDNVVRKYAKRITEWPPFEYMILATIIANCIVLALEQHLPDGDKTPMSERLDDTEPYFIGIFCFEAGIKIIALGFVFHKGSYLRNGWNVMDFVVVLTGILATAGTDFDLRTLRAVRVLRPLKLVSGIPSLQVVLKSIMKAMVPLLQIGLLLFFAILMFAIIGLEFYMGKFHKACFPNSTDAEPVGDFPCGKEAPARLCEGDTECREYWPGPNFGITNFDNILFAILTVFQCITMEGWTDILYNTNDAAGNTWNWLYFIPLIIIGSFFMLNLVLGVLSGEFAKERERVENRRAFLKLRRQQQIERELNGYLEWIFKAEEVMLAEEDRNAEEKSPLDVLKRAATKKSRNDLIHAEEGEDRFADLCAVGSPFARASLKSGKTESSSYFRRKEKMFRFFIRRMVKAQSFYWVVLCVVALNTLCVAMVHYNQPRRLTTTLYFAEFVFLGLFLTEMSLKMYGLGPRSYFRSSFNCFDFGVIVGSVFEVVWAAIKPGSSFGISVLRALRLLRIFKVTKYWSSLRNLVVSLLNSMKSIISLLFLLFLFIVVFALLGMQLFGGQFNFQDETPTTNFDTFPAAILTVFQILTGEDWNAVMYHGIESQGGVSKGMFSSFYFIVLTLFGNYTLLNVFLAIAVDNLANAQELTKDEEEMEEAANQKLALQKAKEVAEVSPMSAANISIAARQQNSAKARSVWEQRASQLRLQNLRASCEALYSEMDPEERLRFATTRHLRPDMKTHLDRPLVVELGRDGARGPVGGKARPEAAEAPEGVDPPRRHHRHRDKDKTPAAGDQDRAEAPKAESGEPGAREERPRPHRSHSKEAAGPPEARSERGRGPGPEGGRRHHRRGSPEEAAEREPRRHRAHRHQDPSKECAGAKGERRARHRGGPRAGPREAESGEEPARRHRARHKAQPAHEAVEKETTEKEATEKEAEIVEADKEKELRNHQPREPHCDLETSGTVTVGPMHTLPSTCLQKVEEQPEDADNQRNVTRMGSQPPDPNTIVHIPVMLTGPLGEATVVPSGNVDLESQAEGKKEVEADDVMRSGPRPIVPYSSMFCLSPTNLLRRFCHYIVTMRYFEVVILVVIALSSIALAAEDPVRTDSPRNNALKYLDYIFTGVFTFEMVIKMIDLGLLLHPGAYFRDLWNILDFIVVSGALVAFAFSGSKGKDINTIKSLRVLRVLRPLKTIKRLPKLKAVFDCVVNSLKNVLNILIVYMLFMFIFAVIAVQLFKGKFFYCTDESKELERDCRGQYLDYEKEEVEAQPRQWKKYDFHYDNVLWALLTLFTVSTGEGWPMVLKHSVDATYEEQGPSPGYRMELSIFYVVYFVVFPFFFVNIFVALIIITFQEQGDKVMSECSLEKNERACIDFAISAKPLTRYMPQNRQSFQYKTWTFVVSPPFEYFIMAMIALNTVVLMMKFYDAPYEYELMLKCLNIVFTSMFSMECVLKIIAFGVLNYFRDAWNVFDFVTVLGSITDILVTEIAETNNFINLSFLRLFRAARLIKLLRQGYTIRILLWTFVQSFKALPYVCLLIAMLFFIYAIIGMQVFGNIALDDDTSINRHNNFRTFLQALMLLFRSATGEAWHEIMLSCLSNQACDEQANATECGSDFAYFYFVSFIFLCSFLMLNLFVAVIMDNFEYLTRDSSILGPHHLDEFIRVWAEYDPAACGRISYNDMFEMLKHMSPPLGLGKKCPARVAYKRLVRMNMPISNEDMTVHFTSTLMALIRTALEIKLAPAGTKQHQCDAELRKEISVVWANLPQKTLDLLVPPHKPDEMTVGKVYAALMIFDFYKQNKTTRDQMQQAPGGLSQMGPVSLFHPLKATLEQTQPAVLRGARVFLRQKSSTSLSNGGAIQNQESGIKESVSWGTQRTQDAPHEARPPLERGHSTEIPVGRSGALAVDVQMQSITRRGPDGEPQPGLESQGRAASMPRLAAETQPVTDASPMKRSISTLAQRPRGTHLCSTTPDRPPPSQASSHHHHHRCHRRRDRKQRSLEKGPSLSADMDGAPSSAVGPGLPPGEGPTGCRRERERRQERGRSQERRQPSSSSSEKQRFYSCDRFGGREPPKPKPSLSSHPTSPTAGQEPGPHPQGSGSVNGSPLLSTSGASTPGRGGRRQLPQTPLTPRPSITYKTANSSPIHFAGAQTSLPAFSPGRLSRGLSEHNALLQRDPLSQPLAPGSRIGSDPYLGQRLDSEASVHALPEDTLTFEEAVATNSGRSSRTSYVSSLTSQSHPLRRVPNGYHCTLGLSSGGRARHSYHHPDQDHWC

Structure (SMILES)	Activity Category: %-Inhib (CaV2.2) @3 μM @30 mM KCl	inhibition at 3 µM [%]
CC1(C)CC(C)(S(=O)(=O)c2cccc(C(F)(F)F)c2)CC(c2ccc(Cl)cc2)O1 (stereo not drawn) [SC-301, 6-(4-Chlorophenyl)-2,2,4-trimethyl-4-[[3-(trifluoromethyl)phenyl]sulfonyl]-tetrahydro-pyran]	B (%-Inhibition >75% up to ≦95%)	–
CC1(S(=O)(=O)c2cc(F)cc(C(F)(F)F)c2)CCOC(c2ccc(Cl)cc2)C1 (stereo not drawn) [SC-303, 2-(4-Chlorophenyl)-4-[[3-fluoro-5-(trifluoromethyl)-phenyl]sulfonyl]-4-methyl-tetrahydro-pyran]	–	75 to 95
CC1(S(=O)(=O)c2cc(F)cc(C(F)(F)F)c2)CCOC(c2ccc(Cl)cc2)C1 (stereo not drawn) [SC-304, 2-(4-Chlorophenyl)-4-[[3-fluoro-5-(trifluoromethyl)-phenyl]sulfonyl]-4-methyl-tetrahydro-pyran]	A (%-Inhibition >95%)	–
CCC1(S(=O)(=O)c2cccc(C(F)(F)F)c2)CCOC(C2CC2)C1 (stereo not drawn) [SC-306, 2-Cyclopropyl-4-ethyl-4-[[3-(trifluoromethyl)phenyl]sulfonyl]-tetrahydro-pyran]	–	40 to 75
CC1(S(=O)(=O)c2cccc(C(F)(F)F)c2)CCOC(c2ccc(Cl)cc2)C1 (stereo not drawn) [SC-310, 2-(4-Chlorophenyl)-4-methyl-4-[[3-(trifluoromethyl)phenyl]sulfonyl]-tetrahydro-pyran]	–	> 95
CC1(S(=O)(=O)c2cccc(C(F)(F)F)c2)CCOC(c2ccc(Cl)cc2)C1 (stereo not drawn) [SC-311, 2-(4-Chlorophenyl)-4-methyl-4-[[3-(trifluoromethyl)phenyl]sulfonyl]-tetrahydro-pyran]	A (%-Inhibition >95%)	–
CC1(S(=O)(=O)c2cccc(C(F)(F)F)c2)CCOC(c2ccc(Cl)cc2)C1 (stereo not drawn) [SC-312, 2-(4-Chlorophenyl)-4-methyl-4-[[3-(trifluoromethyl)phenyl]sulfonyl]-tetrahydro-pyran]	B (%-Inhibition >75% up to ≦95%)	–
CC1(S(=O)(=O)c2cccc(OC(F)(F)F)c2)CCOC(c2ccc(Cl)cc2)C1 (stereo not drawn) [SC-313, 2-(4-Chlorophenyl)-4-methyl-4-[[3-(trifluoromethyloxy)-phenyl]sulfonyl]-tetrahydro-pyran]	–	> 95
O=S(=O)(c1cccc(C(F)(F)F)c1)C1CCOC(c2ccc(Cl)cc2)C1 (stereo not drawn) [SC-401, 2-(4-Chlorophenyl)-4-[[3-(trifluoromethyl)phenyl]sulfonyl]-tetrahydro-pyran]	–	75 to 95
O=S(=O)(c1cccc(C(F)(F)F)c1)C1CCOC(c2ccc(Cl)cc2)C1 (stereo not drawn) [SC-402, 2-(4-Chlorophenyl)-4-[[3-(trifluoromethyl)phenyl]sulfonyl]-tetrahydro-pyran]	A (%-Inhibition >95%)	–
CC(C)Oc1cccc(S(=O)(=O)C2(C)CCOC(c3ccc(S(C)(=O)=O)cc3F)C2)c1 (stereo not drawn) [SC-500, 2-(2-Fluoro-4-methylsulfonyl-phenyl)-4-[(3-isopropoxy-phenyl)sulfonyl]-4-methyl-tetrahydro-pyran]	–	75 to 95
CC1(S(=O)(=O)c2cccc(OC(F)(F)F)c2)CCOC(c2ccc(S(C)(=O)=O)cc2F)C1 (stereo not drawn) [SC-502, 2-(2-Fluoro-4-methylsulfonyl-phenyl)-4-methyl-4-[[3-(trifluoromethyloxy)-phenyl]sulfonyl]-tetrahydro-pyran]	–	> 95
CC(C)c1cccc(S(=O)(=O)C2(C)CCOC(c3ccc(S(C)(=O)=O)cc3F)C2)c1 (stereo not drawn) [SC-506, 2-(2-Fluoro-4-methylsulfonyl-phenyl)-4-[(3-isopropyl-phenyl)sulfonyl]-4-methyl-tetrahydro-pyran]	–	> 95
CC1(S(=O)(=O)c2cccc(C(F)F)c2)CCOC(c2ccc(S(C)(=O)=O)cc2F)C1 (stereo not drawn) [SC-509, 4-[[3-(Difluoro-methyl)-phenyl]sulfonyl]-2-(2-fluoro-4-methylsulfonyl-phenyl)-4-methyl-tetrahydro-pyran]	–	75 to 95
CC1(S(=O)(=O)c2cccc(C(F)F)c2)CCOC(c2ccc(S(C)(=O)=O)cc2F)C1 (stereo not drawn) [SC-510, 4-[[3-(Difluoro-methyl)-phenyl]sulfonyl]-2-(2-fluoro-4-methylsulfonyl-phenyl)-4-methyl-tetrahydro-pyran]	A (%-Inhibition >95%)	–
CC1(S(=O)(=O)c2cccc(C3CC3)c2)CCOC(c2ccc(S(C)(=O)=O)cc2F)C1 (stereo not drawn) [SC-512, 4-[(3-Cyclopropyl-phenyl)sulfonyl]-2-(2-fluoro-4-methylsulfonyl-phenyl)-4-methyl-tetrahydro-pyran]	–	75 to 95
CC1(S(=O)(=O)c2cccc(C3CC3)c2)CCOC(c2ccc(S(C)(=O)=O)cc2F)C1 (stereo not drawn) [SC-513, 4-[(3-Cyclopropyl-phenyl)sulfonyl]-2-(2-fluoro-4-methylsulfonyl-phenyl)-4-methyl-tetrahydro-pyran]	A (%-Inhibition >95%)	–
CC1(S(=O)(=O)c2cccc(OC(F)F)c2)CCOC(c2ccc(S(C)(=O)=O)cc2F)C1 (stereo not drawn) [SC-516, 4-[[3-(Difluoro-methoxy)-phenyl]sulfonyl]-2-(2-fluoro-4-methylsulfonyl-phenyl)-4-methyl-tetrahydro-pyran]	C (%-Inhibition >40% up to ≦75%)	–
CC1(S(=O)(=O)c2cccc(OC(F)F)c2)CCOC(c2ccc(S(C)(=O)=O)cc2F)C1 (stereo not drawn) [SC-517, 4-[[3-(Difluoro-methoxy)-phenyl]sulfonyl]-2-(2-fluoro-4-methylsulfonyl-phenyl)-4-methyl-tetrahydro-pyran]	B (%-Inhibition >75% up to ≦95%)	–
CC1(S(=O)(=O)c2cc(F)cc(C(F)(F)F)c2)CCOC(c2ccc(S(C)(=O)=O)cc2F)C1 (stereo not drawn) [SC-518, 2-(2-Fluoro-4-methylsulfonyl-phenyl)-4-[[3-fluoro-5-(trifluoromethyl)-phenyl]sulfonyl]-4-methyl-tetrahydro-pyran]	–	75 to 95
CC1(S(=O)(=O)c2cc(F)cc(C(F)(F)F)c2)CCOC(c2ccc(S(C)(=O)=O)cc2F)C1 (stereo not drawn) [SC-519, 2-(2-Fluoro-4-methylsulfonyl-phenyl)-4-[[3-fluoro-5-(trifluoromethyl)-phenyl]sulfonyl]-4-methyl-tetrahydro-pyran]	A (%-Inhibition >95%)	–

From US9896440B2, “Aryl substituted heterocyclyl sulfones” (GRÜNENTHAL GMBH, priority 2014, dated 2018)
